In ChEMBL document CHEMBL1155715, “New natural epothilones from Sorangium cellulosum, strains So ce90/B2 and So ce90/D13: isolation, structure elucidation, and SAR studies” (J Nat Prod, 2001):
Converted amounts (≈) assume the structure as drawn.

System: L929
Assay: Cytotoxicity against mouse L929 cells
Type: cell-based
Settings: not given

Row | SMILES | IC50 [µg/mL]
1 | C/C(=C\c1csc(C)n1)[C@@H]1C/C=C/CCC[C@H](C)[C@H](O)[C@@H](C)C(=O)[C@@H](C)[C@@H](O)CC(=O)O1 | 0.4 (≈ 0.863 µM)
2 | C/C(=C\c1csc(C)n1)[C@@H]1C/C=C/CCC[C@H](C)[C@H](O)[C@@H](C)C(=O)[C@H](C)[C@@H](O)CC(=O)O1 | 0.08 (≈ 0.173 µM)

Same assay, conditions: read-out: IC50

Row | SMILES | IC50 [µg/mL]
3 | C/C(=C\c1csc(C)n1)[C@@H](O)C/C=C\CCC[C@H](C)[C@H](O)[C@@H](C)C(=O)C(C)C | 0.8 (≈ 1.96 µM)
4 | CCC(=O)[C@@H](C)CCC/C=C\C[C@H](O)/C(C)=C/c1csc(C)n1 | > 4
5 | CCC(=O)[C@@H](C)CCC/C(C)=C\C[C@H](O)/C(C)=C/c1csc(C)n1 | > 4
6 | C/C(=C\c1csc(C)n1)[C@@H]1C[C@@H]2O[C@@H]2CCC[C@H](C)[C@H](O)[C@@H](C)C(=O)[C@H](C)[C@@H](O)CC(=O)O1 [EPOTHILONE A1] | 0.02 (≈ 0.0417 µM)
7 | C/C(=C\c1csc(C)n1)[C@@H]1C[C@@H]2O[C@@H]2CCC[C@H](C)[C@H](O)[C@@H](C)C(=O)[C@@H](C)[C@@H](O)CC(=O)O1 [EPOTHILONE A2] | 0.007 (≈ 0.0146 µM)
8 | Cc1nc(/C=C/[C@@H]2C[C@@H]3O[C@@H]3CCC[C@H](C)[C@H](O)[C@@H](C)C(=O)C(C)(C)[C@@H](O)CC(=O)O2)cs1 [EPOTHILONE A8] | 0.02 (≈ 0.0417 µM)
9 | Cc1nc(/C=C(\CO)[C@@H]2C[C@@H]3O[C@@H]3CCC[C@H](C)[C@H](O)[C@@H](C)C(=O)C(C)(C)[C@@H](O)CC(=O)O2)cs1 [EPOTHILONE A9] | 0.1 (≈ 0.196 µM)
10 | C/C(=C\c1csc(C)n1)[C@@H]1C[C@@H]2O[C@@H]2CCC[C@H](C)[C@H](O)[C@@H](C)C(=O)C(C)(C)[C@@H](O)CC(=O)O1 [EPOTHILONE A] | 0.004 (≈ 0.0081 µM)
11 | C/C(=C\c1csc(C)n1)[C@@H]1C/C=C\CCC[C@H](C)[C@H](O)[C@@H](C)C(=O)[C@H](C)[C@@H](O)CC(=O)O1 [EPOTHILONE C1] | 0.9 (≈ 1.94 µM)
12 | C/C(=C\c1csc(C)n1)[C@@H]1C/C=C\CCC[C@H](C)[C@H](O)[C@@H](C)C(=O)[C@@H](C)[C@@H](O)CC(=O)O1 [EPOTHILONE C2] | 0.8 (≈ 1.73 µM)
13 | C/C(=C\c1csc(C)n1)[C@@H]1C/C=C\CCC[C@H](C)[C@H](O)CC(=O)C(C)(C)[C@@H](O)CC(=O)O1 [EPOTHILONE C3] | 1.5 (≈ 3.24 µM)
14 | C/C(=C\c1csc(C)n1)[C@@H]1C/C=C\CCCC[C@H](O)[C@@H](C)C(=O)C(C)(C)[C@@H](O)CC(=O)O1 [EPOTHILONE C4] | 0.8 (≈ 1.73 µM)
15 | C/C(=C\c1csc(C)n1)[C@@H]1C/C=C\CC/C=C(\C)[C@H](O)[C@@H](C)C(=O)C(C)(C)[C@@H](O)CC(=O)O1 [EPOTHILONE C5] | 1.5 (≈ 3.15 µM)
16 | C/C(=C\c1csc(C)n1)[C@@H]1C/C=C\C=C\C[C@H](C)[C@H](O)[C@@H](C)C(=O)C(C)(C)[C@@H](O)CC(=O)O1 [EPOTHILONE C6] | 0.12 (≈ 0.252 µM)
17 | C/C(=C\c1csc(C)n1)[C@H]1OC(=O)C[C@H](O)C(C)(C)C(=O)[C@H](C)[C@@H](O)[C@@H](C)CCC/C=C\[C@@H]1O [EPOTHILONE C7] | 0.025 (≈ 0.0506 µM)
18 | Cc1nc(/C=C/[C@@H]2C/C=C\CCC[C@H](C)[C@H](O)[C@@H](C)C(=O)C(C)(C)[C@@H](O)CC(=O)O2)cs1 [EPOTHILONE C8] | 0.25 (≈ 0.539 µM)
19 | Cc1nc(/C=C(\CO)[C@@H]2C/C=C\CCC[C@H](C)[C@H](O)[C@@H](C)C(=O)C(C)(C)[C@@H](O)CC(=O)O2)cs1 [EPOTHILONE C9] | 0.2 (≈ 0.405 µM)
20 | C/C(=C\c1csc(C)n1)[C@@H]1C/C=C\CCC[C@H](C)[C@H](O)[C@@H](C)C(=O)C(C)(C)[C@@H](O)CC(=O)O1 [EPOTHILONE C] | 0.06 (≈ 0.126 µM)

Row | SMILES | IC50 [µg/mL]
21 | C/C1=C/C[C@@H](/C(C)=C/c2csc(C)n2)OC(=O)C[C@H](O)[C@@H](C)C(=O)[C@H](C)[C@@H](O)[C@@H](C)CCC1 [EPOTHILONE D1] | 0.035 (≈ 0.0733 µM)
22 | C/C1=C/C[C@@H](/C(C)=C/c2csc(C)n2)OC(=O)C[C@H](O)[C@H](C)C(=O)[C@H](C)[C@@H](O)[C@@H](C)CCC1 [EPOTHILONE D2] | 0.007 (≈ 0.0147 µM)
23 | C/C1=C/C[C@@H](/C(C)=C/c2csc(C)n2)OC(=O)C[C@H](O)C(C)(C)C(=O)[C@H](C)[C@@H](O)/C(C)=C/CC1 [EPOTHILONE D5] | 0.2 (≈ 0.408 µM)
24 | C/C1=C/C[C@@H](/C(C)=C/c2csc(C)n2)OC(=O)C[C@H](O)C(C)(C)C(=O)[C@H](C)[C@@H](O)[C@@H](C)CCC1 [EPOTHILONE D] | 0.02 (≈ 0.0407 µM)
25 | C/C(=C\c1csc(CO)n1)[C@@H]1C[C@@H]2O[C@@H]2CCC[C@H](C)[C@H](O)[C@@H](C)C(=O)C(C)(C)[C@@H](O)CC(=O)O1 [EPOTHILONE E] | 0.01 (≈ 0.0196 µM)
26 | C/C(=C\c1csc(CO)n1)[C@@H]1C[C@@H]2O[C@]2(C)CCC[C@H](C)[C@H](O)[C@@H](C)C(=O)C(C)(C)[C@@H](O)CC(=O)O1 [EPOTHILONE F] | 0.0015 (≈ 0.00286 µM)
27 | C/C(=C\c1coc(C)n1)[C@@H]1C[C@@H]2O[C@@H]2CCC[C@H](C)[C@H](O)[C@@H](C)C(=O)C(C)(C)[C@@H](O)CC(=O)O1 [EPOTHILONE G1] | 0.006 (≈ 0.0126 µM)
28 | C/C(=C\c1coc(C)n1)[C@@H]1C[C@@H]2O[C@]2(C)CCC[C@H](C)[C@H](O)[C@@H](C)C(=O)C(C)(C)[C@@H](O)CC(=O)O1 [EPOTHILONE G2] | 0.001 (≈ 0.00203 µM)
29 | C/C(=C\c1coc(C)n1)[C@@H]1C/C=C\CCC[C@H](C)[C@H](O)[C@@H](C)C(=O)C(C)(C)[C@@H](O)CC(=O)O1 [EPOTHILONE H1] | 0.12 (≈ 0.26 µM)
30 | C/C1=C/C[C@@H](/C(C)=C/c2coc(C)n2)OC(=O)C[C@H](O)C(C)(C)C(=O)[C@H](C)[C@@H](O)[C@@H](C)CCC1 [EPOTHILONE H2] | 0.011 (≈ 0.0231 µM)
31 | C/C(=C\c1csc(C)n1)[C@@H]1C/C=C\CCCCC[C@H](C)[C@H](O)[C@@H](C)C(=O)C(C)(C)[C@@H](O)CC(=O)O1 [EPOTHILONE I1] | 0.8 (≈ 1.58 µM)
32 | C/C(=C\c1csc(C)n1)[C@@H]1C/C=C\CCCC(C)C[C@H](C)[C@H](O)[C@@H](C)C(=O)C(C)(C)[C@@H](O)CC(=O)O1 (some centres not stated) [EPOTHILONE I2] | 0.4 (≈ 0.77 µM)
33 | C/C1=C/C[C@@H](/C(C)=C/c2csc(C)n2)OC(=O)C[C@H](O)C(C)(C)C(=O)[C@H](C)[C@@H](O)[C@@H](C)CC(C)CCC1 (some centres not stated) [EPOTHILONE I3] | 0.6 (≈ 1.12 µM)
34 | C/C(=C\c1csc(C)n1)[C@@H]1C/C=C\CCCC(C)C[C@H](C)[C@H](O)[C@@H](C)C(=O)[C@@H](C)[C@@H](O)CC(=O)O1 (some centres not stated) [EPOTHILONE I4] | 0.3 (≈ 0.593 µM)
35 | C/C1=C/C[C@@H](/C(C)=C/c2csc(C)n2)OC(=O)C[C@H](O)[C@H](C)C(=O)[C@H](C)[C@@H](O)[C@@H](C)CC(C)CCC1 (some centres not stated) [EPOTHILONE I5] | 0.1 (≈ 0.192 µM)
36 | C/C1=C/C[C@@H](/C(C)=C/c2csc(C)n2)OC(=O)C[C@H](O)[C@@H](C)C(=O)[C@H](C)[C@@H](O)[C@@H](C)CC(C)CCC1 (some centres not stated) [EPOTHILONE I6] | 0.6 (≈ 1.15 µM)
37 | C/C(=C\c1csc(C)n1)[C@@H]1C[C@@H]2O[C@]2(C)CCC[C@H](C)[C@H](O)[C@@H](C)C(=O)C(C)(C)[C@@H](O)CC(=O)O1 [PATUPILONE] | 0.001 (≈ 0.00197 µM)
